Biological target: T1, PAR4 (Homo sapiens, UniProt Q96RI0)
T1 construct: expressed in transfected cells; host or cells: HEK293 PAR4 Clone 1.2A (BMS Arctic ID 383940)
T1 sequence (Q96RI0 18-385): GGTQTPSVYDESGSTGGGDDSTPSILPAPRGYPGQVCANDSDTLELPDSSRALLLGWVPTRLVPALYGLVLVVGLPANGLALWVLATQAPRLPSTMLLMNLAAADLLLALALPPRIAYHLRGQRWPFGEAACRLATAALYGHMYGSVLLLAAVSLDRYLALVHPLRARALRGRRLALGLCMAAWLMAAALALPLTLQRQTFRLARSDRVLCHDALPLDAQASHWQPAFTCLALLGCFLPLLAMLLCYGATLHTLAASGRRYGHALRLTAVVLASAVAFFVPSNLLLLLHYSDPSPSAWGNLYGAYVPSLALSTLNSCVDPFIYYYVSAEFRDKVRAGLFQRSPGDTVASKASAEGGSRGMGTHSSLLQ
Experiment: PAR4 FLIPR assay (antagonism of agonist peptide-induced calcium mobilization)
Assay type: cell-based
Summary of the method: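 Antagonism was taken as block of calcium mobilization evoked by the agonist peptide H-Ala-Phe(4-F)-Pro-Gly-Trp-Leu-Val-Lys-Asn-[…]-NH2, added after 30 min room-temperature compound preincubation in dye-loaded PAR4-transfected HEK293 cells (endogenous PAR1). Fluorescence was read on FDSS, with compound addition alone used as the agonist counter-screen; values come from 11-point concentration-response curves.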

Row | IC50 [nM] | Compound
1 | 2.3 | COc1cnc2c(-c3nc4c(C(O)C(C)(C)C)cc5c(c4s3)OCCO5)cc(C)cc2n1 (centres unmarked) [Example 262, 1-(2-(2-methoxy-7-methylquinoxalin-5-yl)-7,8-dihydro-[1,4]dioxino[2′,3′:3,4]benzo[1,2-d]thiazol-4-yl)-2,2-dimethylpropan-1-ol]
2 | 8.6 | COc1cnc2c(-c3nc4c(C)cc5c(c4s3)OCC(COC(=O)Nc3ccc4c(c3)C(=O)NCC4)O5)cc(C)cc2n1 (centres unmarked) [Example 78, (2-(2-methoxy-7-methylquinoxalin-5-yl)-4-methyl-7,8-dihydro-[1,4]dioxino[2′,3′:3,4]benzo[1,2-d]thiazol-7-yl)methyl (1-oxo-1,2,3,4-tetrahydroisoquinolin-7-yl)carbamate]
3 | 16 | COc1cnc2c(-c3nc4c(C)cc5c(c4s3)OCC(COC(=O)Nc3ccnc(F)c3)O5)cc(C)cc2n1 (centres unmarked) [Example 118, (2-(2-methoxy-7-methylquinoxalin-5-yl)-4-methyl-7,8-dihydro-[1,4]dioxino[2′,3′:3,4]benzo[1,2-d]thiazol-7-yl)methyl (2-fluoropyridin-4-yl)carbamate]
4 | 0.9 | COc1cnc2c(-c3nc4cc(F)c5c(c4s3)C[C@](C)(COC(=O)Nc3cnc(OCCO)nc3)O5)cc(C)cc2n1 [Example 251, (R)-(5-fluoro-2-(2-methoxy-7-methylquinoxalin-5-yl)-7-methyl-7,8-dihydrobenzofuro[5,4-d]thiazol-7-yl)methyl (2-(2-hydroxyethoxy)pyrimidin-5-yl)carbamate]
5 | 88 | COc1cnc2c(-c3nc4cc(F)c5c(c4s3)[C@@H](C)[C@H](COC(=O)Nc3cnc(OCCO)nc3)O5)cc(C)cc2n1 [Example 252, ((7R,8R)-5-fluoro-2-(2-methoxy-7-methylquinoxalin-5-yl)-8-methyl-7,8-dihydrobenzofuro[5,4-d]thiazol-7-yl)methyl (2-(2-hydroxyethoxy)pyrimidin-5-yl)carbamate]
6 | 16 | COc1cnc2c(-c3nc4c(Cl)cc5c(c4s3)OC[C@H](COC(=O)Nc3ccc(N(C)C)nc3)O5)cc(C)cc2n1 [Example 65, (R)-(4-chloro-2-(2-methoxy-7-methylquinoxalin-5-yl)-7,8-dihydro-[1,4]dioxino [2′,3′:3,4]benzo[1,2-d]thiazol-7-yl)methyl (6-(dimethylamino)pyridin-3-yl)carbamate]
7 | 0.6 | COc1cnc2c(-c3nc4cc(F)c5c(c4s3)[C@H](C)[C@@H](CO)O5)cc(C#N)cc2n1 [Example 254, 8-((7S,8S)-5-fluoro-7-(hydroxymethyl)-8-methyl-7,8-dihydrobenzofuro[5,4-d]thiazol-2-y 1)-3-methoxyquinoxaline-6-carbonitrile]
8 | 9.3 | COc1cnc2c(-c3nc4cc(F)c5c(c4s3)C[C@@](C)(CNC(=O)OC(C)(C)C)O5)cc(C)cc2n1 [Example 242, (S)-tert-butyl ((5-fluoro-2-(2-methoxy-7-methylquinoxalin-5-yl)-7-methyl-7,8-dihydrobenzofuro[5,4-d]thiazol-7-yl)methyl)carbamate]
9 | 5.8 | COc1cnc2c(-c3nc4ccc5c(c4s3)C[C@@H](CNC(=O)OCc3cccc(C#N)c3)O5)cc(C)cc2n1 [Example 231, (S)-3-cyanobenzyl ((2-(2-methoxy-7-methylquinoxalin-5-yl)-7,8-dihydrobenzofuro[5,4-d]thiazol-7-yl)methy 1)carbamate]
10 | 5.9 | COc1cnc2c(-c3nc4cc(F)c5c(c4s3)C[C@H](CNC(=O)OCc3ccccc3)O5)cc(C)cc2n1 [Example 221, (R)-benzyl ((5-fluoro-2-(2-methoxy-7-methylquinoxalin-5-yl)-7,8-dihydrobenzofuro[5,4-d]thiazol-7-yl)methyl)carbamate]
11 | 100 | COc1cnc2c(-c3nc4ccc5c(c4s3)C[C@@H](CNC(=O)OC(C)(C)C)O5)cc(C)cc2n1 [Example 244, (S)-tert-butyl ((2-(2-methoxy-7-methylquinoxalin-5-yl)-7,8-dihydrobenzofuro[5,4-d]thiazol-7-yl)methyl)carbamate]
12 | 1.6 | COc1cnc2c(-c3nc4c(C)cc5c(c4s3)OC[C@H](COC(=O)Nc3cnc4c(c3)ncn4C)O5)cc(C)cc2n1 [Example 54, (R)-(2-(2-methoxy-7-methylquinoxalin-5-yl)-4-methyl-7,8-dihydro-[1,4]dioxino[2′,3′:3,4]benzo[1,2-d]thiazol-7-yl)methyl (3-methyl-3H-imidazo[4,5-b]pyridin-6-yl)carbamate]
13 | 1.5 | COc1cnc2c(-c3nc4c(C)cc5c(c4s3)OCC(COC(=O)Nc3ccc(-n4cnc(C)n4)nc3)O5)cc(C)cc2n1 (centres unmarked) [Example 130, (2-(2-methoxy-7-methylquinoxalin-5-yl)-4-methyl-7,8-dihydro-[1,4]dioxino[2′,3′:3,4]benzo[1,2-d]thiazol-7-yl)methyl (6-(3-methyl-1H-1,2,4-triazol-1-yl)pyridin-3-yl)carbamate]
14 | 4.4 | COc1ccc(NC(=O)OCC2COc3c(cc(C)c4nc(-c5cc(C(C)O)cc6nc(OC)cnc56)sc34)O2)cn1 (centres unmarked) [Example 88, (2-(7-(1-hydroxyethyl)-2-methoxyquinoxalin-5-yl)-4-methyl-7,8-dihydro-[1,4]dioxino[2′,3′:3,4]benzo[1,2-d]thiazol-7-yl)methyl (6-methoxypyridin-3-yl)carbamate]
15 | 1.9 | COc1cnc2c(-c3nc4ccc5c(c4s3)OC[C@H](COC(=O)Nc3cncc(C#N)c3)O5)cc(C)cc2n1 [Example 113, (R)-(2-(2-methoxy-7-methylquinoxalin-5-yl)-7,8-dihydro-[1,4]dioxino[2′,3′:3,4]benzo[1,2-d]thiazol-7-yl)methyl (5-cyanopyridin-3-yl)carbamate]
16 | 2.3 | COc1cnc2c(-c3nc4cc(F)c5c(c4s3)C[C@H](COC(=O)Nc3cccc(C(=O)N(C)C)c3)O5)cc(C)cc2n1 [Example 203, (R)-(5-fluoro-2-(2-methoxy-7-methylquinoxalin-5-yl)-7,8-dihydrobenzofuro[5,4-d]thiazo 1-7-yl)methyl (3-(dimethylcarbamoyl)phenyl)carbamate]
17 | 1 | COc1cnc2c(-c3nc4cc(F)c5c(c4s3)C[C@@H](CNC(=O)OCC(F)(F)F)O5)cc(C)cc2n1 [Example 249, (S)-2,2,2-trifluoroethyl ((5-fluoro-2-(2-methoxy-7-methylquinoxalin-5-yl)-7,8-dihydrobenzofuro[5,4-d]thiazol-7-yl)methyl)carbamate]
18 | 22 | CCOC(=O)NCC1Cc2c(ccc3nc(-c4cc(C)cc5nc(OC)cnc45)sc23)O1 (centres unmarked) [Example 197, Ethyl ((2-(2-methoxy-7-methylquinoxalin-5-yl)-7,8-dihydrobenzofuro[5,4-d]thiazol-7-yl)methyl)carbamate]
19 | 6.5 | COc1cnc2c(-c3nc4cc(F)c5c(c4s3)C[C@@H](CNC(=O)OC(C)(C)C)O5)cc(C)cc2n1 [Example 202, (S)-tert-butyl ((5-fluoro-2-(2-methoxy-7-methylquinoxalin-5-yl)-7,8-dihydrobenzofuro[5,4-d]thiazol-7-yl)methyl)carbamate]
20 | 26 | COc1cnc2c(-c3nc4cc(F)c5c(c4s3)C[C@@H](CNC(C)=O)O5)cc(C)cc2n1 [Example 209, (S)-N-((5-fluoro-2-(2-methoxy-7-methylquinoxalin-5-yl)-7,8-dihydrobenzofuro[5,4-d]thiazol-7-yl)methyl)acetamide]
21 | 6.1 | COc1cnc2c(-c3nc4cc(F)c5c(c4s3)C[C@@](C)(COC(=O)Nc3cccc(C#N)c3)O5)cc(C)cc2n1 [Example 176, (S)-(5-fluoro-2-(2-methoxy-7-methylquinoxalin-5-yl)-7-methyl-7,8-dihydrobenzofuro[5,4-d]thiazol-7-yl)methyl (3-cyanophenyl)carbamate]
22 | 5.5 | COCc1cnc2c(-c3nc4cc5c(cc4s3)OCO5)cc(C)cc2n1 [Example 143, 6-(2-(methoxymethyl)-7-methylquinoxalin-5-yl)-[1,3]dioxolo[4′,5′:4,5]benzo[1,2-d]thiazole]
23 | 2.5 | COc1cnc2c(-c3nc4ccc5c(c4s3)C[C@](C)(COC(=O)Nc3cnc(C)nc3)O5)cc(C)cc2n1 [Example 194, (R)-(2-(2-methoxy-7-methylquinoxalin-5-yl)-7-methyl-7,8-dihydrobenzofuro[5,4-d]thiazol-7-yl)methyl (2-methylpyrimidin-5-yl)carbamate]
24 | 4.9 | COc1cnc2c(-c3nc4c(F)cc5c(c4s3)OC[C@H](COC(=O)Nc3ccnc(C)c3)O5)cc(C)cc2n1 [Example 75, (R)-(4-fluoro-2-(2-methoxy-7-methylquinoxalin-5-yl)-7,8-dihydro-[1,4]dioxino[2′,3′:3,4]benzo[1,2-d]thiazol-7-yl)methyl (2-methylpyridin-4-yl)carbamate]

Row | Compound | IC50 [nM]
25 | COc1cnc2c(-c3nc4cc(F)c5c(c4s3)C[C@H](CNC(=O)Oc3ccccc3)O5)cc(C)cc2n1 [Example 220, (R)-phenyl ((5-fluoro-2-(2-methoxy-7-methylquinoxalin-5-yl)-7,8-dihydrobenzofuro[5,4-d]thiazol-7-yl)methyl)carbamate] | 38
26 | COc1cnc2c(-c3nc4cc(F)c5c(c4s3)C[C@@H](CNC(=O)Oc3ccc(Cl)cc3)O5)cc(C)cc2n1 [Example 214, (S)-4-chlorophenyl ((5-fluoro-2-(2-methoxy-7-methylquinoxalin-5-yl)-7,8-dihydrobenzofuro[5,4-d]thiazol-7-yl)methyl)carbamate] | 26

— patent US11932658B2 (BRISTOL-MYERS SQUIBB COMPANY, priority 2016, dated 2024)
